Data on 5 molecules can be found in the supplement of paper PMC10307832.

For one assay, the system named is NCI-H1975. In words: relative viability (nuclei count vs DMSO), 5 days (fraction); higher = more cells survive. As to conditions: first compound 0.8 µM. The essentials: (§1)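 Lung cancer cell lines in 1536-well plates got either a single drug or a fixed anchor-drug dose together with five library-drug doses (not always all listed) in √10 steps, by pin tool, on the day after seeding. Nuclei were counted after 5 days, and relative viability is the treated-to-vehicle ratio of nuclei counts. Values are medians of duplicate plates.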
For `CCCCCCCCCCCC1=C(O)C(=O)C=C(O)C1=O` [Embelin] + COc1cccc2cc(-c3nc([C@H]4CC[C@H](C(=O)O)CC4)n4ncnc(N)c34)[nH]c12 [OSI-027] (partner 0.5 µM), the relative viability stood at 0.817.

Molecule `CCCCCCCCCCCC1=C(O)C(=O)C=C(O)C1=O` [Embelin] + Nc1nc2[nH]cc(CCc3ccc(C(=O)N[C@@H](CCC(=O)O)C(=O)O)cc3)c2c(=O)[nH]1 [Pemetrexed] (partner 0.2 µM) had a relative viability of 0.286.

Staying with this assay, now noted: first compound 2.53 µM.
Consider `CCCCCCCCCCCC1=C(O)C(=O)C=C(O)C1=O` [Embelin] + N=C(N)NC(=N)NCCc1ccccc1 [Phenformin] (partner 250 µM), for which the relative viability was determined as 0.405.

As to `CCCCCCCCCCCC1=C(O)C(=O)C=C(O)C1=O` [Embelin] + CCNC(=O)c1noc(-c2cc(C(C)C)c(O)cc2O)c1-c1ccc(CN2CCOCC2)cc1 [Luminespib] (partner 0.01 µM), the relative viability was 0.293.

In turn, `CCCCCCCCCCCC1=C(O)C(=O)C=C(O)C1=O` [Embelin] + Cc1nc(Nc2ncc(C(=O)Nc3c(C)cccc3Cl)s2)cc(N2CCN(CCO)CC2)n1 [Dasatinib] (partner 0.075 µM) had a relative viability of 0.502.

`CCCCCCCCCCCC1=C(O)C(=O)C=C(O)C1=O` [Embelin] + COc1cccc2cc(-c3nc([C@H]4CC[C@H](C(=O)O)CC4)n4ncnc(N)c34)[nH]c12 [OSI-027] (partner 0.5 µM) registered a relative viability of 0.88.

Consider `CCCCCCCCCCCC1=C(O)C(=O)C=C(O)C1=O` [Embelin] + Nc1nc2[nH]cc(CCc3ccc(C(=O)N[C@@H](CCC(=O)O)C(=O)O)cc3)c2c(=O)[nH]1 [Pemetrexed] (partner 0.2 µM), for which the relative viability was found to be 0.285.

Still in this assay, the particulars now being: first compound 8 µM.
On to `CCCCCCCCCCCC1=C(O)C(=O)C=C(O)C1=O` [Embelin] + N=C(N)NC(=N)NCCc1ccccc1 [Phenformin] (partner 250 µM), for which the relative viability worked out at 0.384.

Consider `CCCCCCCCCCCC1=C(O)C(=O)C=C(O)C1=O` [Embelin] + CCNC(=O)c1noc(-c2cc(C(C)C)c(O)cc2O)c1-c1ccc(CN2CCOCC2)cc1 [Luminespib] (partner 0.01 µM), for which the relative viability stood at 0.2.

`CCCCCCCCCCCC1=C(O)C(=O)C=C(O)C1=O` [Embelin] + Cc1nc(Nc2ncc(C(=O)Nc3c(C)cccc3Cl)s2)cc(N2CCN(CCO)CC2)n1 [Dasatinib] (partner 0.075 µM) gave a relative viability of 0.333.

In turn, `CCCCCCCCCCCC1=C(O)C(=O)C=C(O)C1=O` [Embelin] + COc1cccc2cc(-c3nc([C@H]4CC[C@H](C(=O)O)CC4)n4ncnc(N)c34)[nH]c12 [OSI-027] (partner 0.5 µM) displayed a relative viability of 0.768.

In turn, `CCCCCCCCCCCC1=C(O)C(=O)C=C(O)C1=O` [Embelin] + Nc1nc2[nH]cc(CCc3ccc(C(=O)N[C@@H](CCC(=O)O)C(=O)O)cc3)c2c(=O)[nH]1 [Pemetrexed] (partner 0.2 µM) gave a relative viability of 0.311.

In a further assay the test system is NCI-H1993. The assay is described as above. The following applies: first compound 0.08 µM. The essentials:
as §1
In the case of `CCCCCCCCCCCC1=C(O)C(=O)C=C(O)C1=O` [Embelin] + N=C(N)NC(=N)NCCc1ccccc1 [Phenformin] (partner 250 µM), the relative viability came out at 0.499.

Consider `CCCCCCCCCCCC1=C(O)C(=O)C=C(O)C1=O` [Embelin] + CCNC(=O)c1noc(-c2cc(C(C)C)c(O)cc2O)c1-c1ccc(CN2CCOCC2)cc1 [Luminespib] (partner 0.01 µM), for which the relative viability came to 0.848.

Take `CCCCCCCCCCCC1=C(O)C(=O)C=C(O)C1=O` [Embelin] + Cc1nc(Nc2ncc(C(=O)Nc3c(C)cccc3Cl)s2)cc(N2CCN(CCO)CC2)n1 [Dasatinib] (partner 0.075 µM): the relative viability came out at 0.641.

Regarding `CCCCCCCCCCCC1=C(O)C(=O)C=C(O)C1=O` [Embelin] + COc1cccc2cc(-c3nc([C@H]4CC[C@H](C(=O)O)CC4)n4ncnc(N)c34)[nH]c12 [OSI-027] (partner 0.5 µM), the relative viability amounted to 0.577.

In turn, `CCCCCCCCCCCC1=C(O)C(=O)C=C(O)C1=O` [Embelin] + Nc1nc2[nH]cc(CCc3ccc(C(=O)N[C@@H](CCC(=O)O)C(=O)O)cc3)c2c(=O)[nH]1 [Pemetrexed] (partner 0.2 µM) came in with a relative viability of 0.609.

The same assay, now with this note: first compound 0.8 µM.
Regarding `CCCCCCCCCCCC1=C(O)C(=O)C=C(O)C1=O` [Embelin] + N=C(N)NC(=N)NCCc1ccccc1 [Phenformin] (partner 250 µM), the relative viability came to 0.542.

On to `CCCCCCCCCCCC1=C(O)C(=O)C=C(O)C1=O` [Embelin] + CCNC(=O)c1noc(-c2cc(C(C)C)c(O)cc2O)c1-c1ccc(CN2CCOCC2)cc1 [Luminespib] (partner 0.01 µM), for which the relative viability was 0.763.

In the case of `CCCCCCCCCCCC1=C(O)C(=O)C=C(O)C1=O` [Embelin] + Cc1nc(Nc2ncc(C(=O)Nc3c(C)cccc3Cl)s2)cc(N2CCN(CCO)CC2)n1 [Dasatinib] (partner 0.075 µM), the relative viability amounted to 0.602.

`CCCCCCCCCCCC1=C(O)C(=O)C=C(O)C1=O` [Embelin] + COc1cccc2cc(-c3nc([C@H]4CC[C@H](C(=O)O)CC4)n4ncnc(N)c34)[nH]c12 [OSI-027] (partner 0.5 µM) showed a relative viability of 0.556.

Regarding `CCCCCCCCCCCC1=C(O)C(=O)C=C(O)C1=O` [Embelin] + Nc1nc2[nH]cc(CCc3ccc(C(=O)N[C@@H](CCC(=O)O)C(=O)O)cc3)c2c(=O)[nH]1 [Pemetrexed] (partner 0.2 µM), the relative viability was 0.568.

Still in this assay, the particulars now being: first compound 2.53 µM.
Regarding `CCCCCCCCCCCC1=C(O)C(=O)C=C(O)C1=O` [Embelin] + N=C(N)NC(=N)NCCc1ccccc1 [Phenformin] (partner 250 µM), the relative viability was 0.489.

`CCCCCCCCCCCC1=C(O)C(=O)C=C(O)C1=O` [Embelin] + CCNC(=O)c1noc(-c2cc(C(C)C)c(O)cc2O)c1-c1ccc(CN2CCOCC2)cc1 [Luminespib] (partner 0.01 µM) yielded a relative viability of 1.04.

In turn, `CCCCCCCCCCCC1=C(O)C(=O)C=C(O)C1=O` [Embelin] + Cc1nc(Nc2ncc(C(=O)Nc3c(C)cccc3Cl)s2)cc(N2CCN(CCO)CC2)n1 [Dasatinib] (partner 0.075 µM) came in with a relative viability of 0.535.

Take `CCCCCCCCCCCC1=C(O)C(=O)C=C(O)C1=O` [Embelin] + COc1cccc2cc(-c3nc([C@H]4CC[C@H](C(=O)O)CC4)n4ncnc(N)c34)[nH]c12 [OSI-027] (partner 0.5 µM): the relative viability is 0.606.

On to `CCCCCCCCCCCC1=C(O)C(=O)C=C(O)C1=O` [Embelin] + Nc1nc2[nH]cc(CCc3ccc(C(=O)N[C@@H](CCC(=O)O)C(=O)O)cc3)c2c(=O)[nH]1 [Pemetrexed] (partner 0.2 µM), for which the relative viability turned out to be 0.581.

Staying with this assay, now noted: first compound 8 µM.
`CCCCCCCCCCCC1=C(O)C(=O)C=C(O)C1=O` [Embelin] + N=C(N)NC(=N)NCCc1ccccc1 [Phenformin] (partner 250 µM) registered a relative viability of 0.467.

Molecule `CCCCCCCCCCCC1=C(O)C(=O)C=C(O)C1=O` [Embelin] + CCNC(=O)c1noc(-c2cc(C(C)C)c(O)cc2O)c1-c1ccc(CN2CCOCC2)cc1 [Luminespib] (partner 0.01 µM) came in with a relative viability of 0.963.

In turn, `CCCCCCCCCCCC1=C(O)C(=O)C=C(O)C1=O` [Embelin] + Cc1nc(Nc2ncc(C(=O)Nc3c(C)cccc3Cl)s2)cc(N2CCN(CCO)CC2)n1 [Dasatinib] (partner 0.075 µM) came in with a relative viability of 0.509.

`CCCCCCCCCCCC1=C(O)C(=O)C=C(O)C1=O` [Embelin] + COc1cccc2cc(-c3nc([C@H]4CC[C@H](C(=O)O)CC4)n4ncnc(N)c34)[nH]c12 [OSI-027] (partner 0.5 µM) returned a relative viability of 0.547.
